# Assay results reported in patent US8716226B2, “3,5 phenyl-substituted beta amino acid derivatives as integrin antagonists” (Saint Louis University, priority 2012, dated 2014).
# Experiments:
# [1] = test system: TGFβ activation by recombinant human integrin αvβ6; test: Integrin-mediated TGFβ activation assay (MLEC-PAI/L luciferase reporter co-cultured with SW480-β6 cells); assay type: cell-based; conditions: MLEC-PAI/L reporter cells co-cultured overnight with SW480-β6 cells
# Protocol: Integrin-Mediated TGFβ Activation Assay.
# Mink lung epithelial cells stably transfected with a luciferase reporter driven by a portion of the TGFβ-responsive Plasminogen Activator Inhibitor promoter (MLEC-PAI/L) were seeded at a density of 25,000/well in a white-walled, clear-bottom 96-well culture plate (Costar 3610) in 100 μL of assay medium (phenol red-free DMEM+10% fetal bovine serum). The cells were incubated for one hour in ambient air at room temperature, then at 37° C. for three hours in 5% CO2 to allow cell attachment. The medium was aspirated from the wells and 50 μL of compound diluted to 2× in assay medium was applied to each well, followed by 50 μL of assay medium containing 25,000 SW480-β6 cells, a cell line which stably overexpresses recombinant human integrin αvβ6. […] Following overnight co-culture incubation under standard conditions, the assay medium was aspirated from the wells, and a foil seal was applied to the bottom of the plate to prevent cross-detection of luminescence between the sample wells. […] The assay plate was then read immediately on a luminometer. Data was analyzed by first subtracting the mean substrate blank value from all samples, then dividing by the mean value of the MLEC-PAI/L baseline group to yield a “relative luciferase activity” value (RLA). […]
# α5β1 = molecular target: T1, α5β1 (Homo sapiens, UniProt P05556+P08648); test: K562 cell adhesion assay for α5β1 function; assay type: cell-based; conditions: K562 cells, adhesion to human plasma fibronectin
# T1 construct: K562 cells (American Type Culture Collection, Manassas, Va.) which naturally express high levels of α5β1; endogenous in cells; host or cells: K562 (human erythroleukemia, ATCC)
# T1 sequence (P08648 42-894 limits assumed): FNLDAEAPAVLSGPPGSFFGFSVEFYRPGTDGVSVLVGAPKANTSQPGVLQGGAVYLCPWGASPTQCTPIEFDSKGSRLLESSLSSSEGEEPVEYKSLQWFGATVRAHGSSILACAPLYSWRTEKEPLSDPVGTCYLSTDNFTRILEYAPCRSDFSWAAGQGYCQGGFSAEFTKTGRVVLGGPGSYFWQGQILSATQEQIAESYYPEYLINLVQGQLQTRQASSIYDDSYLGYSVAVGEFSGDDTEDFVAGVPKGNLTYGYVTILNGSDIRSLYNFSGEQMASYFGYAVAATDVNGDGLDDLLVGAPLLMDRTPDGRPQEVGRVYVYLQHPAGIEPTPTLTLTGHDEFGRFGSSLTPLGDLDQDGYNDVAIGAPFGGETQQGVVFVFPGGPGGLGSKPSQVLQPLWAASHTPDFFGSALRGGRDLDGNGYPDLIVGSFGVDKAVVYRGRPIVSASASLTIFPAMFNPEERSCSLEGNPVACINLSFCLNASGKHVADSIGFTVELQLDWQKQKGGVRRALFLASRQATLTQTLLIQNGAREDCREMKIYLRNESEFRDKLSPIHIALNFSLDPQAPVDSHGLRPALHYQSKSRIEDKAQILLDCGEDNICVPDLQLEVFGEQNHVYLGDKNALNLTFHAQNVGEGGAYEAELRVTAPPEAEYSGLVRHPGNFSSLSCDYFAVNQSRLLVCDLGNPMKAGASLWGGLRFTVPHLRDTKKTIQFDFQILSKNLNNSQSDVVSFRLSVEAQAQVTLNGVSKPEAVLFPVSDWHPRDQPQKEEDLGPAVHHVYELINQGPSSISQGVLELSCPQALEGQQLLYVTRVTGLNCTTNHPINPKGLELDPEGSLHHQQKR
# T1 sequence (P08648 895-1049 partner limits assumed): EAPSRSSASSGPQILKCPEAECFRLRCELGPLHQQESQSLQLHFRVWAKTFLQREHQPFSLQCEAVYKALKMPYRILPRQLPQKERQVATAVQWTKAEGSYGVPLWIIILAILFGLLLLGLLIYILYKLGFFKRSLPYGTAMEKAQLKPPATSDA
# T1 sequence (P05556 21-798): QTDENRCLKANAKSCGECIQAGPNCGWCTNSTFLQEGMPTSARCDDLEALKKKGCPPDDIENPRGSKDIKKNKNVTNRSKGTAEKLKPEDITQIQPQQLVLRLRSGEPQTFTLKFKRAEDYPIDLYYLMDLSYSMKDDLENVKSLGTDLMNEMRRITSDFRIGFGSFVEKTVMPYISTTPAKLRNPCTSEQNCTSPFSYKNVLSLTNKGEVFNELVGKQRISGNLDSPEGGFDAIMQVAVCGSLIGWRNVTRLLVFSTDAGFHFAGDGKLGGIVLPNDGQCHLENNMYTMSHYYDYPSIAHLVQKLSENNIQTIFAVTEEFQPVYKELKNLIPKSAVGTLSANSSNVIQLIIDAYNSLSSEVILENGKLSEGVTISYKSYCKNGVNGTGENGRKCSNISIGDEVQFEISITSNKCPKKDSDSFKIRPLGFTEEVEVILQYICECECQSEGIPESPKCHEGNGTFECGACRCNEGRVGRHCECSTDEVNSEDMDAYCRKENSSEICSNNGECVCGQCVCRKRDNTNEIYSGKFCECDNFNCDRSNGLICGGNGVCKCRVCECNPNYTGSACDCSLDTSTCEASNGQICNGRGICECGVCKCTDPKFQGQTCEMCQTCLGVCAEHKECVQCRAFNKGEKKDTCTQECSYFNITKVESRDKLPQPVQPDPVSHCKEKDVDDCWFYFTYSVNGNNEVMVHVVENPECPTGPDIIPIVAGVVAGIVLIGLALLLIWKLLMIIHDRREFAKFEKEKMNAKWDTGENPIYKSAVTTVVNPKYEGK
# Protocol: K562 Cell Adhesion Assay for α5β1 Function.
# Purified human plasma fibronectin (Calbiochem/EMD Biosciences) diluted to 5 μg/ml in TS buffer (25 mM Tris 7.4, 150 mM NaCl) was added to wells (100 μl/well) of a 96-well microtiter plate (Immulon 2HB 96-well; VWR Scientific) and incubated overnight at 4° C. The solution in each well was then replaced with 200 μl of blocking buffer (TS with 1% bovine serum albumin), and the plate incubated for 1 hr at 37° C. Compounds were diluted in test tubes to 2× the peak testing concentration in cell adhesion buffer consisting of Hanks Buffered Salts Solution (HBSS, cation-free, Sigma), 0.1% bovine serum albumin, 25 mM HEPES, and 200 μM MnCl2. […] The cells were washed with the cell adhesion buffer, counted using a hemocytometer, centrifuged and resuspended in cell adhesion buffer at 3×10^6 cells/ml. […] Remaining attached cells were detected by addition of 100 μl/well p-nitrophenylphosphate (Sigma) solution (15 mg tablet dissolved in 25 ml 50 mM NaAcetate, pH 5; 0.5% Triton-X-100), incubation for 30 min at 37° C., and then addition of 50 μl/well 1N NaOH to stop the enzyme reaction. Plates were read by colorimetric detection at 405 nm wavelength using a Tecan Safire II plate reader. Concentration-response curves were constructed by non-linear regression (best fit) analysis, and IC50 values were calculated for each compound. […]
smiles,measurement,setting,value
"CC(C)(C)c1cc(Br)cc([C@H](CC(=O)O)NC(=O)CNC(=O)c2cc(O)cc(NC3=NCC(O)CN3)c2)c1 (stereo partly drawn) [Example 1, (3S)—N-[3-hydroxy-5-[(1,4,5,6-tetrahydro-5-hydroxy-2-pyrimidinyl)amino]benzoyl]glycyl-3-(3-bromo-5-tert-butylphenyl)-β-alanine]",IC50,[1],564 nM
same,IC50,α5β1,4.2 nM
